The values that follow come from EP0319906A2, “Novel quinoline derivatives, processes for preparation thereof and antibacterial agent containing them” (Dainippon Pharmaceutical Co., Ltd., priority 1987, dated 1989).

One data set concerns E. coli NIHJ JC-2. As to the kind of experiment: In vitro antibacterial activity, twofold agar-dilution MIC. Type of data set: cell-based. Conditions: Escherichia coli, NIHJJC2; E. coli NIHJ JC-2; Mueller-Hinton agar, 20-hour incubation at 37 °C; calculated for free base; read-out: minimum inhibitory concentrations (MIC). An outline of the steps: (§1)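 Overnight Mueller-Hinton broth cultures were inoculated by loopful (about 10⁶ CFU) onto drug-containing agar. MIC was taken as the lowest concentration preventing visible growth, expressed in µg/ml as free base.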

The next data set relates to E. coli P-5101. The data set is described as above. Type of data set: cell-based. To be noted: Escherichia coli, P5101; E. coli P-5101; Mueller-Hinton agar, 20-hour incubation at 37 °C; calculated for free base; read-out: minimum inhibitory concentrations (MIC). The essentials:
as §1

The next data set has as its system P. aeruginosa 12. Described as above. The data set is classed as cell-based. Conditions: Pseudomonas aeruginosa; P. aeruginosa 12; Mueller-Hinton agar, 20-hour incubation at 37 °C; calculated for free base; read-out: minimum inhibitory concentrations (MIC). The essentials: as §1
Another data set relates to S. aureus 209 JC-1. The description is as above. Type of data set: cell-based. Conditions: Staphylococcus aureus, 209JC1; S. aureus 209 JC-1; Mueller-Hinton agar, 20-hour incubation at 37 °C; calculated for free base; read-out: minimum inhibitory concentrations (MIC). The essentials: as §1
For another data set, the system named is S. aureus No. 80. Described as above. Type of data set: cell-based. To be noted: Staphylococcus aureus; S. aureus No. 80; Mueller-Hinton agar, 20-hour incubation at 37 °C; calculated for free base; read-out: minimum inhibitory concentrations (MIC). The essentials: as §1
The next data set concerns S. aureus Terajima. The description is as above. To be noted: Staphylococcus aureus; S. aureus Terajima; Mueller-Hinton agar, 20-hour incubation at 37 °C; calculated for free base; read-out: minimum inhibitory concentrations (MIC). Type of data set: cell-based. The essentials: as §1
A further data set concerns S. epidermidis No. 8. The description is as above. The data set is classed as cell-based. Conditions: Staphylococcus epidermidis; S. epidermidis No. 8; Mueller-Hinton agar, 20-hour incubation at 37 °C; calculated for free base; read-out: minimum inhibitory concentrations (MIC). An outline of the steps:
as §1

A further data set relates to S. marcescens S-9. Described as above. Type of data set: cell-based. Conditions: Serratia marcescens, S9; S. marcescens S-9; Mueller-Hinton agar, 20-hour incubation at 37 °C; calculated for free base; read-out: minimum inhibitory concentrations (MIC). An outline of the steps: as §1
In a further data set the test system is S. pyogenes A65. The data set is described as above. To be noted: Streptococcus pyogenes; S. pyogenes A65; Mueller-Hinton agar, 20-hour incubation at 37 °C; calculated for free base; read-out: minimum inhibitory concentrations (MIC). The data set is classed as cell-based. An outline of the steps: as §1
A further data set has as its system A. laidlawii PG-8. The data set can be described thus: Antimycoplasma activity, twofold agar dilution MIC. The data set is classed as cell-based. To be noted: Acholeplasma laidlawii, PG8, 48 h; A. laidlawii PG-8; Chanock agar, 37 °C for 2 days, aerobically; calculated for free base; read-out: minimum inhibitory concentrations (MIC). How it is done:
(§2) The figures in the table show minimum inhibitory concentrations (MIC), (μg/ml), calculated for free base. Minimum inhibitory concentrations (MIC) were determined by the twofold agar dilution method. The media used were Chanock broth and agar [PPLD broth and agar (Difco) supplemented with 20 % horse serum and 10 % fresh yeast extract]. A 2-3 day broth culture of organisms was diluted with Chanock broth to a cell density of about 10^6 cells/ml. One loopful (about […]) of the organism dilution was spotted onto 10-ml drug containing Chanock agar in petri dishes using a multiple inoculator ([…] International). […] Incubation was performed anaerobically using the […] anaerobic system (BBL) for M. buccale, M. fermentans, M. hominis, M. orale and M. salivarium, and aerobically for other Mycoplasma spp. The MIC was defined as the lowest compound concentration at which no growth of organism was detected.

In the next data set the test system is M. arginini G-230. The data set can be described thus: Antimycoplasma activity, twofold agar dilution MIC. Type of data set: cell-based. Conditions: 48 h; M. arginini G-230; Chanock agar, 37 °C for 2 days, aerobically; calculated for free base; read-out: minimum inhibitory concentrations (MIC). On the procedure: as §2
For a further data set, the system named is M. buccale CH-20249. As to the kind of experiment: Antimycoplasma activity, twofold agar dilution MIC. Type of data set: cell-based. To be noted: 48 h; M. buccale CH-20249; Chanock agar, 37 °C for 2 days, anaerobically; calculated for free base; read-out: minimum inhibitory concentrations (MIC). How it is done: as §2
The test system of another data set is M. fermentans PG-18. The data set can be described thus: Antimycoplasma activity, twofold agar dilution MIC. The data set is classed as cell-based. To be noted: Mycoplasmopsis fermentans, PG18, 48 h; M. fermentans PG-18; Chanock agar, 37 °C for 2 days, anaerobically; calculated for free base; read-out: minimum inhibitory concentrations (MIC). On the procedure:
as §2

For a further data set, the system named is M. hominis PG-21. The data set can be described thus: Antimycoplasma activity, twofold agar dilution MIC. The data set is classed as cell-based. To be noted: Metamycoplasma hominis, PG21, 48 h; M. hominis PG-21; Chanock agar, 37 °C for 2 days, anaerobically; calculated for free base; read-out: minimum inhibitory concentrations (MIC). How it is done: as §2

The next data set deals with M. hyorhinis BST-7. As to the kind of experiment: Antimycoplasma activity, twofold agar dilution MIC. Type of data set: cell-based. To be noted: Mesomycoplasma hyorhinis, BST7, 48 h; M. hyorhinis BST-7; Chanock agar, 37 °C for 2 days, aerobically; calculated for free base; read-out: minimum inhibitory concentrations (MIC). On the procedure: as §2
A further data set has as its system M. orale CH-19299. The data set can be described thus: Antimycoplasma activity, twofold agar dilution MIC. To be noted: po, 48 h; M. orale CH-19299; Chanock agar, 37 °C for 2 days, anaerobically; calculated for free base; read-out: minimum inhibitory concentrations (MIC). Type of data set: cell-based. How it is done: as §2
The next data set relates to M. pneumoniae Mac. As to the kind of experiment: Antimycoplasma activity, twofold agar dilution MIC. The data set is classed as cell-based. Conditions: Mycoplasmoides pneumoniae, 168 h; M. pneumoniae Mac; Chanock agar, 37 °C for 7 days, aerobically; calculated for free base; read-out: minimum inhibitory concentrations (MIC). On the procedure:
as §2

The test system of the next data set is M. salivarium PG-20. As to the kind of experiment: Antimycoplasma activity, twofold agar dilution MIC. Type of data set: cell-based. Conditions: 48 h; M. salivarium PG-20; Chanock agar, 37 °C for 2 days, anaerobically; calculated for free base; read-out: minimum inhibitory concentrations (MIC). How it is done: as §2
Data set [1] can be described thus: Urinary excretion in mice. Type of data set: in vivo. On the procedure:
A suspension containing Compound 1 was orally administered to mace at a dose of 5 mg/kg. Urine was collected over a period of 24 hours after administration. The level of the compound in urine was determined by the thin-layer cup-plated method using Escherichia coli kp as an indicator organism.

Structures are written as SMILES. Converted amounts (≈) assume the structure as drawn.

As for `Cc1c(F)c(N2C[C@@H](C)N[C@@H](C)C2)c(F)c2c1c(=O)c(C(=O)O)cn2C1CC1` [Compound 1, 1-cyclopropyl-6,8-difluoro-5-methyl-7-(cis-3,5-demethyl-1-piperazinyl)-1,4-dihydro-4-oxoquinoline-3-carboxylic acid], the MIC is 0.025 µg/mL (≈ 0.0639 µM) in the data set on E. coli NIHJ JC-2; 0.025 µg/mL (≈ 0.0639 µM) with E. coli P-5101; 0.2 µg/mL (≈ 0.511 µM) in the data set with P. aeruginosa 12; 0.05 µg/mL (≈ 0.128 µM) in the data set on S. aureus 209 JC-1; 0.0125 µg/mL (≈ 0.0319 µM) with S. aureus No. 80; 0.05 µg/mL (≈ 0.128 µM) in the data set with S. aureus Terajima. Further, the MIC in the data set with S. epidermidis No. 8 was 0.025 µg/mL (≈ 0.0639 µM); with S. marcescens S-9, 0.39 µg/mL (≈ 0.996 µM); in the data set on S. pyogenes A65 it was 0.2 µg/mL (≈ 0.511 µM); in the data set with A. laidlawii PG-8, 0.05 µg/mL (≈ 0.128 µM); with M. arginini G-230, 0.025 µg/mL (≈ 0.0639 µM); in the data set on M. buccale CH-20249, 0.025 µg/mL (≈ 0.0639 µM). Moreover, the MIC is 0.025 µg/mL (≈ 0.0639 µM) with M. fermentans PG-18; 0.05 µg/mL (≈ 0.128 µM) with M. hominis PG-21; 0.025 µg/mL (≈ 0.0639 µM) in the data set with M. hyorhinis BST-7; 0.2 µg/mL (≈ 0.511 µM) in the data set with M. orale CH-19299; 0.05 µg/mL (≈ 0.128 µM) in the data set with M. pneumoniae Mac; 0.1 µg/mL (≈ 0.255 µM) with M. salivarium PG-20. This molecule also returned an Amount in data set [1] (amount in urine over 24 hours after oral 5 mg/kg) of 0.105 mg. Besides, the dose excreted at 24 h in data set [1] (mouse, in vivo, oral 5 mg/kg, mice, read-out: Urinary recovery for 24 hours) was 12.7%. In addition, the Volume in data set [1] (urine collected over 24 hours after oral 5 mg/kg) was determined as 14.0 mL.
